Assay results taken from ChEMBL document CHEMBL2073821, “Immunohistochemical and functional characterization of pH-dependent intestinal absorption of weak organic acids by the monocarboxylic acid transporter MCT1” (J Pharm Pharmacol, 1999).
Square brackets hold non-standard residues; d marks the D form. Peptide text beside a SMILES is read from it. Sar = CNCC(=O)O

Legend:
Assay type in all cases: functional, cell-based
Conditions in all cases: MDA-MB-231
[1] = biological target: T1, Monocarboxylate transporter 1 (Rattus norvegicus) (UniProt P53987); assay: TP_TRANSPORTER: uptake of Glutamic acid at a concentration of 0.01uM in MCT1-expressing MDA-MB231 cells
T1 sequence (whole entry): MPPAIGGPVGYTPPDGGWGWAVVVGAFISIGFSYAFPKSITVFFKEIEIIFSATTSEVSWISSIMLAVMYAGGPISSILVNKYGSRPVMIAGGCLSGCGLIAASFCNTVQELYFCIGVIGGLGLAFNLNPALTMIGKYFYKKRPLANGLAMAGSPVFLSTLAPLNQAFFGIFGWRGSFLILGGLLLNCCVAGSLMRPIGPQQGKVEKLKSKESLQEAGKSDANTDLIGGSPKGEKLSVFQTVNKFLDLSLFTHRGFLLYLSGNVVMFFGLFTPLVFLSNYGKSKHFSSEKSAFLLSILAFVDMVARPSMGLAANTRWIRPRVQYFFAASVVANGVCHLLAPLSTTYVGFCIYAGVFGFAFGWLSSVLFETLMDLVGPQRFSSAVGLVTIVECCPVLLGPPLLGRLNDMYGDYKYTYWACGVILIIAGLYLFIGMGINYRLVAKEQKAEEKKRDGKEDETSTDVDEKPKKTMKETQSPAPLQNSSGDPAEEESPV

[2] = biological target: T1, Monocarboxylate transporter 1 (Rattus norvegicus); assay: TP_TRANSPORTER: uptake of Propionic acid at a concentration of 7uM in MCT1-expressing MDA-MB231 cells
[3] = biological target: T1, Monocarboxylate transporter 1 (Rattus norvegicus); assay: TP_TRANSPORTER: uptake of Valproic acid at a concentration of 19uM in MCT1-expressing MDA-MB231 cells
[4] = biological target: T1, Monocarboxylate transporter 1 (Rattus norvegicus); assay: TP_TRANSPORTER: uptake of Foscarnet at a concentration of 3uM in MCT1-expressing MDA-MB231 cells
[5] = biological target: T1, Monocarboxylate transporter 1 (Rattus norvegicus); assay: TP_TRANSPORTER: uptake of Mevalonic acid at a concentration of 67uM in MCT1-expressing MDA-MB231 cells
[6] = biological target: T1, Monocarboxylate transporter 1 (Rattus norvegicus); assay: TP_TRANSPORTER: uptake of D-Lactic Acid at a concentration of 3uM in MCT1-expressing MDA-MB231 cells
[7] = biological target: T1, Monocarboxylate transporter 1 (Rattus norvegicus); assay: TP_TRANSPORTER: uptake of Glycylsarcosine at a concentration of 17uM in MCT1-expressing MDA-MB231 cells
[8] = biological target: T1, Monocarboxylate transporter 1 (Rattus norvegicus); assay: TP_TRANSPORTER: uptake of Faropenem at a concentration of 76uM in MCT1-expressing MDA-MB231 cells
[9] = biological target: T1, Monocarboxylate transporter 1 (Rattus norvegicus); assay: TP_TRANSPORTER: uptake of Methotrexate at a concentration of 0.03uM in MCT1-expressing MDA-MB231 cells
[10] = biological target: T1, Monocarboxylate transporter 1 (Rattus norvegicus); assay: TP_TRANSPORTER: uptake of Butyric acid at a concentration of 137uM in MCT1-expressing MDA-MB231 cells
[11] = biological target: T1, Monocarboxylate transporter 1 (Rattus norvegicus); assay: TP_TRANSPORTER: uptake of P-Aminohippuric acid at a concentration of 9uM in MCT1-expressing MDA-MB231 cells

Q: Which Activity [1] does the source give for N[C@@H](CCC(=O)O)C(=O)O here?
A: is not a substrate [-]

Q: For CCC(=O)O, which Activity [2] is on record?
A: substrate [+]

Q: CCCC(CCC)C(=O)O was tested. Which Activity [3] did it give?
A: is not a substrate [-]

Q: With O=C(O)P(=O)(O)O as the compound, how does the Activity [4] read?
A: substrate [+]

Q: How did the Activity [5] turn out when C[C@@](O)(CCO)CC(=O)O was run?
A: is not a substrate [-]

Q: How did the Activity [6] turn out when C[C@@H](O)C(=O)O was run?
A: substrate [+]

Q: How did the Activity [7] turn out when CN(CC(=O)O)C(=O)CN (H-Gly-[Sar]-OH) was run?
A: is not a substrate [-]

Q: With C[C@@H](O)[C@H]1C(=O)N2C(C(=O)O)=C([C@H]3CCCO3)S[C@H]12 as the compound, how does the Activity [8] read?
A: is not a substrate [-]

Q: How did the Activity [9] turn out when CN(Cc1cnc2nc(N)nc(N)c2n1)c1ccc(C(=O)N[C@@H](CCC(=O)O)C(=O)O)cc1 was run?
A: is not a substrate [-]

Q: Which Activity [10] does the source give for CCCC(=O)O here?
A: substrate [+]

Q: Which Activity [11] does the source give for Nc1ccc(C(=O)NCC(=O)O)cc1 here?
A: is not a substrate [-]
